{
  "source": "patent US8192962B2",
  "about": "“Processes for detecting toxic substances” (Daikin Industries, Ltd., priority 2001, dated 2012)",
  "system": "Genes belonging to other category",
  "test": "DNA chip mRNA expression in yeast, genes belonging to other category (Table 9)",
  "assay_type": "cell-based, Saccharomyces cerevisiae S288C",
  "summary_of_the_method": "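Expression change after 2 h toxicant exposure (growth-inhibiting, sub-lethal) of log-phase S. cerevisiae S288C at 25° C. Oligo-dT-purified mRNA was labeled with Cy3-dUTP or Cy5-dUTP and hybridized >12 h at 65° C. to a genome-wide chip; ratio of scanned fluorescence to control.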",
  "data": [
    {"smiles": "C[S+](C)[O-]", "note": "[(15), dimethylsulfoxide]", "values": [
      {"measurement": "The level of expressed mRNA in the presence of chemical substance/The level of expressed mRNA in the absence of chemical substance", "setting": "yeast gene YAR010C", "value": 1.8},
      {"measurement": "The level of expressed mRNA in the presence of chemical substance/The level of expressed mRNA in the absence of chemical substance", "setting": "yeast gene YBL005W-A", "value": 0.9},
      {"measurement": "The level of expressed mRNA in the presence of chemical substance/The level of expressed mRNA in the absence of chemical substance", "setting": "yeast gene YBL041W", "value": 1.3},
      {"measurement": "The level of expressed mRNA in the presence of chemical substance/The level of expressed mRNA in the absence of chemical substance", "setting": "yeast gene YBL043W", "value": 1.8},
      {"measurement": "The level of expressed mRNA in the presence of chemical substance/The level of expressed mRNA in the absence of chemical substance", "setting": "yeast gene YBR109C", "value": 1.4},
      {"measurement": "The level of expressed mRNA in the presence of chemical substance/The level of expressed mRNA in the absence of chemical substance", "setting": "yeast gene YBR201W", "value": 1.6},
      {"measurement": "The level of expressed mRNA in the presence of chemical substance/The level of expressed mRNA in the absence of chemical substance", "setting": "yeast gene YBR214W", "value": 5.1},
      {"measurement": "The level of expressed mRNA in the presence of chemical substance/The level of expressed mRNA in the absence of chemical substance", "setting": "yeast gene YCL027W", "value": 3.6},
      {"measurement": "The level of expressed mRNA in the presence of chemical substance/The level of expressed mRNA in the absence of chemical substance", "setting": "yeast gene YCR004C", "value": 0.8},
      {"measurement": "The level of expressed mRNA in the presence of chemical substance/The level of expressed mRNA in the absence of chemical substance", "setting": "yeast gene YCR088W", "value": 2.8},
      {"measurement": "The level of expressed mRNA in the presence of chemical substance/The level of expressed mRNA in the absence of chemical substance", "setting": "yeast gene YDL007W", "value": 1.4},
      {"measurement": "The level of expressed mRNA in the presence of chemical substance/The level of expressed mRNA in the absence of chemical substance", "setting": "yeast gene YDL008W", "value": 0.7},
      {"measurement": "The level of expressed mRNA in the presence of chemical substance/The level of expressed mRNA in the absence of chemical substance", "setting": "yeast gene YDL126C", "value": 1.7},
      {"measurement": "The level of expressed mRNA in the presence of chemical substance/The level of expressed mRNA in the absence of chemical substance", "setting": "yeast gene YDL238C", "value": 1.3},
      {"measurement": "The level of expressed mRNA in the presence of chemical substance/The level of expressed mRNA in the absence of chemical substance", "setting": "yeast gene YDR055W", "value": 5.7},
      {"measurement": "The level of expressed mRNA in the presence of chemical substance/The level of expressed mRNA in the absence of chemical substance", "setting": "yeast gene YDR085C", "value": 3.1},
      {"measurement": "The level of expressed mRNA in the presence of chemical substance/The level of expressed mRNA in the absence of chemical substance", "setting": "yeast gene YDR104C", "value": 1.4},
      {"measurement": "The level of expressed mRNA in the presence of chemical substance/The level of expressed mRNA in the absence of chemical substance", "setting": "yeast gene YDR115W", "value": 0.8},
      {"measurement": "The level of expressed mRNA in the presence of chemical substance/The level of expressed mRNA in the absence of chemical substance", "setting": "yeast gene YDR259C", "value": 2.9},
      {"measurement": "The level of expressed mRNA in the presence of chemical substance/The level of expressed mRNA in the absence of chemical substance", "setting": "yeast gene YDR315C", "value": 1.5},
      {"measurement": "The level of expressed mRNA in the presence of chemical substance/The level of expressed mRNA in the absence of chemical substance", "setting": "yeast gene YDR358W", "value": 0.9},
      {"measurement": "The level of expressed mRNA in the presence of chemical substance/The level of expressed mRNA in the absence of chemical substance", "setting": "yeast gene YDR388W", "value": 2.6},
      {"measurement": "The level of expressed mRNA in the presence of chemical substance/The level of expressed mRNA in the absence of chemical substance", "setting": "yeast gene YDR432W", "value": 2.6},
      {"measurement": "The level of expressed mRNA in the presence of chemical substance/The level of expressed mRNA in the absence of chemical substance", "setting": "yeast gene YDR481C", "value": 3.5},
      {"measurement": "The level of expressed mRNA in the presence of chemical substance/The level of expressed mRNA in the absence of chemical substance", "setting": "yeast gene YDR510W", "value": 2.2},
      {"measurement": "The level of expressed mRNA in the presence of chemical substance/The level of expressed mRNA in the absence of chemical substance", "setting": "yeast gene YEL066W", "value": 1.0},
      {"measurement": "The level of expressed mRNA in the presence of chemical substance/The level of expressed mRNA in the absence of chemical substance", "setting": "yeast gene YER107C", "value": 0.7},
      {"measurement": "The level of expressed mRNA in the presence of chemical substance/The level of expressed mRNA in the absence of chemical substance", "setting": "yeast gene YER159C", "value": 2.2},
      {"measurement": "The level of expressed mRNA in the presence of chemical substance/The level of expressed mRNA in the absence of chemical substance", "setting": "yeast gene YFL028C", "value": 0.8},
      {"measurement": "The level of expressed mRNA in the presence of chemical substance/The level of expressed mRNA in the absence of chemical substance", "setting": "yeast gene YGL158W", "value": 2.3},
      {"measurement": "The level of expressed mRNA in the presence of chemical substance/The level of expressed mRNA in the absence of chemical substance", "setting": "yeast gene YGL229C", "value": 0.2},
      {"measurement": "The level of expressed mRNA in the presence of chemical substance/The level of expressed mRNA in the absence of chemical substance", "setting": "yeast gene YGR136W", "value": 2.6},
      {"measurement": "The level of expressed mRNA in the presence of chemical substance/The level of expressed mRNA in the absence of chemical substance", "setting": "yeast gene YGR213C", "value": 6.5},
      {"measurement": "The level of expressed mRNA in the presence of chemical substance/The level of expressed mRNA in the absence of chemical substance", "setting": "yeast gene YGR257C", "value": 1.3},
      {"measurement": "The level of expressed mRNA in the presence of chemical substance/The level of expressed mRNA in the absence of chemical substance", "setting": "yeast gene YHR071W", "value": 3.0},
      {"measurement": "The level of expressed mRNA in the presence of chemical substance/The level of expressed mRNA in the absence of chemical substance", "setting": "yeast gene YHR139C", "value": 1.9},
      {"measurement": "The level of expressed mRNA in the presence of chemical substance/The level of expressed mRNA in the absence of chemical substance", "setting": "yeast gene YIL140W", "value": 3.3},
      {"measurement": "The level of expressed mRNA in the presence of chemical substance/The level of expressed mRNA in the absence of chemical substance", "setting": "yeast gene YJL030W", "value": 1.5},
      {"measurement": "The level of expressed mRNA in the presence of chemical substance/The level of expressed mRNA in the absence of chemical substance", "setting": "yeast gene YJL073W", "value": 2.6},
      {"measurement": "The level of expressed mRNA in the presence of chemical substance/The level of expressed mRNA in the absence of chemical substance", "setting": "yeast gene YJL116C", "value": 1.0},
      {"measurement": "The level of expressed mRNA in the presence of chemical substance/The level of expressed mRNA in the absence of chemical substance", "setting": "yeast gene YJR004C", "value": 3.2},
      {"measurement": "The level of expressed mRNA in the presence of chemical substance/The level of expressed mRNA in the absence of chemical substance", "setting": "yeast gene YJR029W", "value": 1.8},
      {"measurement": "The level of expressed mRNA in the presence of chemical substance/The level of expressed mRNA in the absence of chemical substance", "setting": "yeast gene YJR086W", "value": 2.0},
      {"measurement": "The level of expressed mRNA in the presence of chemical substance/The level of expressed mRNA in the absence of chemical substance", "setting": "yeast gene YJR099W", "value": 0.5},
      {"measurement": "The level of expressed mRNA in the presence of chemical substance/The level of expressed mRNA in the absence of chemical substance", "setting": "yeast gene YJR122W", "value": 0.8},
      {"measurement": "The level of expressed mRNA in the presence of chemical substance/The level of expressed mRNA in the absence of chemical substance", "setting": "yeast gene YKL008C", "value": 1.3},
      {"measurement": "The level of expressed mRNA in the presence of chemical substance/The level of expressed mRNA in the absence of chemical substance", "setting": "yeast gene YKL039W", "value": 3.1},
      {"measurement": "The level of expressed mRNA in the presence of chemical substance/The level of expressed mRNA in the absence of chemical substance", "setting": "yeast gene YKL041W", "value": 1.0},
      {"measurement": "The level of expressed mRNA in the presence of chemical substance/The level of expressed mRNA in the absence of chemical substance", "setting": "yeast gene YKL096W", "value": 2.3},
      {"measurement": "The level of expressed mRNA in the presence of chemical substance/The level of expressed mRNA in the absence of chemical substance", "setting": "yeast gene YKL139W", "value": 1.0}
    ]}
  ]
}
